Assays:
SMYD3 [1] = target: T1, SMYD3 (Homo sapiens (Human), UniProt Q9H7B4); test: SMYD3 biochemical assay (SPA, 3H-SAM methylation of MEKK2 protein substrate); settings: average of n = 1 to n = 50; read-out: SMYD3 Biochem IC50
Method in brief: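 Native full-length human SMYD3 (E. coli-expressed, tags removed) was preincubated with compound for 30 min at room temperature in 25 mM Tris-Cl pH 8.0, 1 mM TCEP, 0.005% BSG, 0.005% Tween 20. Reaction was started with 3H-SAM plus GST-MEKK2, quenched with 100 uM unlabeled SAM, and read by SPA scintillation counting.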

SMYD3 [2] = target: T1, SMYD3; test: SMYD3 cell assay (Trimethyl-MEKK2 In-Cell Western in 293T/17 cells); format: cell-based; settings: average of n = 1 to n = 50; read-out: SMYD3 Cell IC50
Method in brief: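 In-Cell Western ratio of trimethyl-Lys260 MEKK2 to anti-flag signal; percent inhibition from DMSO and maximum-inhibition controls, IC50 by non-linear regression, triplicates.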

T1 sequence (Q9H7B4 whole entry): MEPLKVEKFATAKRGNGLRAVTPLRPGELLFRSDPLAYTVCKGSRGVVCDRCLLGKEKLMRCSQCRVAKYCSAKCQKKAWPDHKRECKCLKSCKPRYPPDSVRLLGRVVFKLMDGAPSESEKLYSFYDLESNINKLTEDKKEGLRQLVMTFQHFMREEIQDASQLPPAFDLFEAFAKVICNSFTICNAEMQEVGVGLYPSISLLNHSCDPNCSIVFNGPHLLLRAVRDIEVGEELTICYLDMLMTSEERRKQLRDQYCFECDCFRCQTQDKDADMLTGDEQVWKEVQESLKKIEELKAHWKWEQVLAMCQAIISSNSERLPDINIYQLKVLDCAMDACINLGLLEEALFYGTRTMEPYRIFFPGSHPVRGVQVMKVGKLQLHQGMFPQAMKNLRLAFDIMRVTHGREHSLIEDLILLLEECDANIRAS

Question: What does the source list for O=C(N[C@H]1CCN(S(=O)(=O)CC2CCN(CCO)CC2)[C@@H](Cc2ccccc2)C1)c1cc(C2CC2)on1 [compound 662, N-((2S,4S)-2-benzyl-1-(((1-(2-hydroxyethyl)piperidin-4-yl)methyl)sulfonyl)piperidin-4-yl)-5-cyclopropylisoxazole-3-carboxamide]?
Answer: IC50 (SMYD3 [1]): 80.1 nM; IC50 (SMYD3 [2]): 1550 nM

Question: With O=C(N[C@H]1C[C@H]2CC[C@@H](C1)N2S(=O)(=O)CCN1CCC(N2CCCCC2)C1)c1cc(C2CC2)on1 (stereo partly drawn) [compound 663, 5-cyclopropyl-N-((1R,3r,5S)-8-((2-(3-(piperidin-1-yl)pyrrolidin-1-yl)ethyl)sulfonyl)-8-azabicyclo[3.2.1]octan-3-yl)isoxazole-3-carboxamide] as the compound, how does the IC50 (SMYD3 [1]) read?
Answer: Its IC50 is 85.1 nM.

Question: What about the IC50 (SMYD3 [2]) of the same compound?
Answer: Its IC50 is 670 nM.

Question: Which results are given for C[C@@H]1C[C@H](NC(=O)c2cc(C3CC3)on2)CCN1C(=O)c1ccc([C@@H](C)N)cc1 [compound 664, N-((2R,4R)-1-(4-((R)-1-aminoethyl)benzoyl)-2-methylpiperidin-4-yl)-5-cyclopropylisoxazole-3-carboxamide]?
Answer: IC50 (SMYD3 [1]): 86.6 nM; IC50 (SMYD3 [2]): 1070 nM

Question: Which results are given for C[C@@H]1CNCCN1S(=O)(=O)N1CC[C@H](NC(=O)c2cc(C3CC3)on2)C[C@@H]1C [compound 666, 5-cyclopropyl-N-((2S,4S)-2-methyl-1-(((R)-2-methylpiperazin-1-yl)sulfonyl)piperidin-4-yl)isoxazole-3-carboxamide]?
Answer: IC50 (SMYD3 [1]): 90.6 nM; IC50 (SMYD3 [2]): 801 nM

Question: Which IC50 (SMYD3 [1]) does the source give for C[C@H]1CN(S(=O)(=O)NC2CCN(C)CC2)CC[C@H]1NC(=O)c1cc(C2CC2)on1 [compound 667, 5-cyclopropyl-N-((3S,4R)-3-methyl-1-(N-(1-methylpiperidin-4-yl)sulfamoyl)piperidin-4-yl)isoxazole-3-carboxamide] here?
Answer: The IC50 was 96.9 nM.

Question: What about the IC50 (SMYD3 [2]) of the same compound?
Answer: The IC50 was 731 nM.

Question: For C[C@H]1CN(S(=O)(=O)N(C)C2CCN(C)CC2)CC[C@H]1NC(=O)c1cc(C2CC2)on1 [compound 668, 5-cyclopropyl-N-((3S,4R)-3-methyl-1-(N-methyl-N-(1-methylpiperidin-4-yl)sulfamoyl)piperidin-4-yl)isoxazole-3-carboxamide], which IC50 (SMYD3 [1]) is on record?
Answer: Its IC50 is 101 nM.

Question: What about the IC50 (SMYD3 [2]) of the same compound?
Answer: Its IC50 is 576 nM.

Question: With C[C@@H]1CN(S(=O)(=O)N2CC[C@H](NC(=O)c3cc(C4CC4)on3)C[C@@H]2C)CCN1C [compound 669, 5-cyclopropyl-N-((2S,4S)-1-(((R)-3,4-dimethylpiperazin-1-yl)sulfonyl)-2-methylpiperidin-4-yl)isoxazole-3-carboxamide] as the compound, how does the IC50 (SMYD3 [1]) read?
Answer: Its IC50 is 102 nM.

Question: And the IC50 (SMYD3 [2])?
Answer: Its IC50 is 398 nM.

Question: With O=C(N[C@H]1C[C@H]2CC[C@@H](C1)N2S(=O)(=O)CCCNCCN1CCOCC1)c1cc(C2CC2)on1 [compound 670, 5-cyclopropyl-N-((1R,3r,5S)-8-((3-((2-morpholinoethyl)amino)propyl)sulfonyl)-8-azabicyclo[3.2.1]octan-3-yl)isoxazole-3-carboxamide] as the compound, how does the IC50 (SMYD3 [1]) read?
Answer: The IC50 was 103 nM.

Question: And the IC50 (SMYD3 [2])?
Answer: Its IC50 is 886 nM.

Question: How did the IC50 (SMYD3 [1]) turn out when C[C@@H]1C[C@H](NC(=O)c2cc(C3CC3)on2)CCN1C(=O)c1ccc(OCCN)cc1 [compound 671, N-((2R,4R)-1-(4-(2-aminoethoxy)benzoyl)-2-methylpiperidin-4-yl)-5-cyclopropylisoxazole-3-carboxamide] was run?
Answer: The IC50 was 104 nM.

Question: What about the IC50 (SMYD3 [2]) of the same compound?
Answer: The IC50 was 5580 nM.

Question: Which IC50 (SMYD3 [1]) does the source give for CN(C)CCS(=O)(=O)N1[C@@H]2CC[C@H]1C[C@@H](NC(=O)c1cc(C3CC3)on1)C2 [compound 672, 5-cyclopropyl-N-((1R,3r,5S)-8-((2-(dimethylamino)ethyl)sulfonyl)-8-azabicyclo[3.2.1]octan-3-yl)isoxazole-3-carboxamide] here?
Answer: The IC50 was 104 nM.

Question: What about the IC50 (SMYD3 [2]) of the same compound?
Answer: The IC50 was 388 nM.

Question: What does the source list for O=C(N[C@H]1C[C@H]2CCC[C@@H](C1)N2S(=O)(=O)CC1CCNCC1)c1cc(C2CC2)on1 [compound 673, 5-cyclopropyl-N-((1R,3r,5S)-9-((piperidin-4-ylmethyl)sulfonyl)-9-azabicyclo[3.3.1]nonan-3-yl)isoxazole-3-carboxamide]?
Answer: IC50 (SMYD3 [1]): 106 nM; IC50 (SMYD3 [2]): 1680 nM

Question: How did the IC50 (SMYD3 [1]) turn out when C[C@H]1C[C@@H](NC(=O)c2cc(C3CC3)on2)CCN1S(=O)(=O)N(C)C1CCN(C)CC1 [compound 674, 5-cyclopropyl-N-((2S,4S)-2-methyl-1-(N-methyl-N-(1-methylpiperidin-4-yl)sulfamoyl)piperidin-4-yl)isoxazole-3-carboxamide] was run?
Answer: Its IC50 is 108 nM.

Question: And the IC50 (SMYD3 [2])?
Answer: The IC50 was 1080 nM.

Question: With CNCc1ccc(C(=O)N2CC[C@@H](NC(=O)c3cc(C4CC4)on3)C[C@H]2C)cc1 [compound 675, 5-cyclopropyl-N-((2R,4R)-2-methyl-1-(4-((methylamino)methyl)benzoyl)piperidin-4-yl)isoxazole-3-carboxamide] as the compound, how does the IC50 (SMYD3 [1]) read?
Answer: The IC50 was 110 nM.

Question: What about the IC50 (SMYD3 [2]) of the same compound?
Answer: The IC50 was 1370 nM.

Question: What does the source list for C[C@@H]1C[C@H](NC(=O)c2cc(C3CC3)on2)CCN1S(=O)(=O)CC1CCN(CCN2CCOCC2)CC1 [compound 676, 5-cyclopropyl-N-((2R,4R)-2-methyl-1-(((1-(2-morpholinoethyl)piperidin-4-yl)methyl)sulfonyl)piperidin-4-yl)isoxazole-3-carboxamide]?
Answer: IC50 (SMYD3 [1]): 111 nM; IC50 (SMYD3 [2]): > 10000 nM

Question: For C[C@H]1C[C@@H](NC(=O)c2cc(C3CC3)on2)CCN1S(=O)(=O)N(C)CCN [compound 677, N-((2S,4S)-1-(N-(2-aminoethyl)-N-methylsulfamoyl)-2-methylpiperidin-4-yl)-5-cyclopropylisoxazole-3-carboxamide], which IC50 (SMYD3 [1]) is on record?
Answer: The IC50 was 111 nM.

Question: What about the IC50 (SMYD3 [2]) of the same compound?
Answer: The IC50 was 5310 nM.

Question: With CN(C1CCNCC1)S(=O)(=O)N1[C@@H]2CCC[C@H]1C[C@@H](NC(=O)c1cc(C3CC3)on1)C2 [compound 678] as the compound, how does the IC50 (SMYD3 [1]) read?
Answer: Its IC50 is 113 nM.

Question: What about the IC50 (SMYD3 [2]) of the same compound?
Answer: Its IC50 is 2660 nM.

Question: How did the IC50 (SMYD3 [1]) turn out when C[C@H](N)c1ccc(C(=O)N2CC[C@@H](NC(=O)c3cc(C4CC4)on3)C[C@H]2C)cc1 [compound 679, N-((2R,4R)-1-(4-((S)-1-aminoethyl)benzoyl)-2-methylpiperidin-4-yl)-5-cyclopropylisoxazole-3-carboxamide] was run?
Answer: The IC50 was 113 nM.

Question: And the IC50 (SMYD3 [2])?
Answer: The IC50 was 1300 nM.

Question: With C[C@H]1C[C@@H](NC(=O)c2cc(C3CC3)on2)CCN1S(=O)(=O)N1CCN(C)C(C)(C)C1 [compound 680, 5-cyclopropyl-N-((2S,4S)-2-methyl-1-((3,3,4-trimethylpiperazin-1-yl)sulfonyl)piperidin-4-yl)isoxazole-3-carboxamide] as the compound, how does the IC50 (SMYD3 [1]) read?
Answer: Its IC50 is 119 nM.

Question: And the IC50 (SMYD3 [2])?
Answer: Its IC50 is 592 nM.

Question: Which IC50 (SMYD3 [1]) does the source give for CN1CCC(CS(=O)(=O)N2CC[C@H](NC(=O)c3cc(C4CC4)on3)C[C@@H]2Cc2ccccc2)CC1 [compound 682, N-((2S,4S)-2-benzyl-1-(((1-methylpiperidin-4-yl)methyl)sulfonyl)piperidin-4-yl)-5-cyclopropylisoxazole-3-carboxamide] here?
Answer: The IC50 was 121 nM.

Question: What about the IC50 (SMYD3 [2]) of the same compound?
Answer: Its IC50 is 1250 nM.

Question: What does the source list for C[C@@H]1C[C@H](NC(=O)c2cc(C3CC3)on2)CCN1C(=O)c1ccc(N2CCNCC2)nc1 [compound 683, 5-cyclopropyl-N-((2R,4R)-2-methyl-1-(6-(piperazin-1-yl)nicotinoyl)piperidin-4-yl)isoxazole-3-carboxamide]?
Answer: IC50 (SMYD3 [1]): 122 nM; IC50 (SMYD3 [2]): 1780 nM

Question: Which results are given for CN1CCN(S(=O)(=O)N2[C@@H]3CC[C@H]2C[C@@H](NC(=O)c2cc(C4CC4)on2)C3)CC1CO (stereo partly drawn) [compound 684, 5-cyclopropyl-N-((1R,3r,5S)-8-((3-(hydroxymethyl)-4-methylpiperazin-1-yl)sulfonyl)-8-azabicyclo[3.2.1]octan-3-yl)isoxazole-3-carboxamide]?
Answer: IC50 (SMYD3 [1]): 122 nM; IC50 (SMYD3 [2]): 923 nM

Question: With C[C@@H]1CN(S(=O)(=O)N2CCN(C)CC2)[C@H](C)C[C@@H]1NC(=O)c1cc(C2CC2)on1 [compound 685, 5-cyclopropyl-N-((2R,4S,5R)-2,5-dimethyl-1-((4-methylpiperazin-1-yl)sulfonyl)piperidin-4-yl)isoxazole-3-carboxamide] as the compound, how does the IC50 (SMYD3 [1]) read?
Answer: The IC50 was 124 nM.

Question: What about the IC50 (SMYD3 [2]) of the same compound?
Answer: Its IC50 is 254 nM.

Question: What does the source list for C[C@@H]1C[C@H](NC(=O)c2cc(C3CC3)on2)CCN1C(=O)c1ccc(CN(C)C)cc1 [compound 686, 5-cyclopropyl-N-((2R,4R)-1-(4-((dimethylamino)methyl)benzoyl)-2-methylpiperidin-4-yl)isoxazole-3-carboxamide]?
Answer: IC50 (SMYD3 [1]): 129 nM; IC50 (SMYD3 [2]): 1540 nM

Question: What does the source list for CN(C1CCNCC1)S(=O)(=O)N1[C@@H]2CCC[C@H]1C[C@H](NC(=O)c1cc(C3CC3)on1)C2 [compound 687, 5-cyclopropyl-N-((1R,3s,5S)-9-(N-methyl-N-(piperidin-4-yl)sulfamoyl)-9-azabicyclo[3.3.1]nonan-3-yl)isoxazole-3-carboxamide]?
Answer: IC50 (SMYD3 [1]): 130 nM; IC50 (SMYD3 [2]): 1710 nM

Question: With C[C@@H]1CN(S(=O)(=O)CCN)[C@H](C)C[C@@H]1NC(=O)c1cc(C2CC2)on1 [compound 688, N-((2R,4S,5R)-1-((2-aminoethyl)sulfonyl)-2,5-dimethylpiperidin-4-yl)-5-cyclopropylisoxazole-3-carboxamide] as the compound, how does the IC50 (SMYD3 [1]) read?
Answer: Its IC50 is 131 nM.

Question: And the IC50 (SMYD3 [2])?
Answer: The IC50 was 783 nM.

Question: Which IC50 (SMYD3 [1]) does the source give for CC1CCCN1CCS(=O)(=O)N1[C@@H]2CC[C@H]1C[C@@H](NC(=O)c1cc(C3CC3)on1)C2 (stereo partly drawn) [compound 689, 5-cyclopropyl-N-((1R,3r,5S)-8-((2-(2-methylpyrrolidin-1-yl)ethyl)sulfonyl)-8-azabicyclo[3.2.1]octan-3-yl)isoxazole-3-carboxamide] here?
Answer: Its IC50 is 131 nM.

Question: What about the IC50 (SMYD3 [2]) of the same compound?
Answer: The IC50 was 764 nM.

Question: With O=C(N[C@H]1C[C@H]2CC[C@@H](C1)N2S(=O)(=O)CCN1CCC(O)C1)c1cc(C2CC2)on1 (stereo partly drawn) [compound 690, 5-cyclopropyl-N-((1R,3r,5S)-8-((2-(3-hydroxypyrrolidin-1-yl)ethyl)sulfonyl)-8-azabicyclo[3.2.1]octan-3-yl)isoxazole-3-carboxamide] as the compound, how does the IC50 (SMYD3 [1]) read?
Answer: Its IC50 is 138 nM.

Question: And the IC50 (SMYD3 [2])?
Answer: Its IC50 is 553 nM.

Question: Which IC50 (SMYD3 [1]) does the source give for O=C(N[C@H]1CCN(S(=O)(=O)CC2CCNCC2)[C@H](Cc2ccccc2)C1)c1cc(C2CC2)on1 [compound 691, N-((2R,4S)-2-benzyl-1-((piperidin-4-ylmethyl)sulfonyl)piperidin-4-yl)-5-cyclopropylisoxazole-3-carboxamide] here?
Answer: Its IC50 is 144 nM.

Question: What about the IC50 (SMYD3 [2]) of the same compound?
Answer: The IC50 was 1950 nM.
